{"source": "patent US4146613A", "about": "“Oral anti-diabetic drug composition” (THERA Gesellschaft fur Patentverwertung mbH, priority 1976, dated 1979)", "origin": "cited, not measured here", "system": "blood sugar", "data": [{"substance": "kallikrein", "values": [{"measurement": "persistence of blood sugar lowering effect", "setting": "after administering for several days, for example after three days", "result": "the effect would diminish or disappear"}, {"measurement": "blood sugar lowering", "setting": "also if applied orally, Frey et al 1932", "result": "lower slightly the blood sugar"}]}]}
